For orientation: GI50 means the concentration at which growth is held to half of that of the control. What is called TGI is the concentration at which net growth stops.

What all share (assay): DTP human tumour cell line panel, 48 h
Experiment [1] relates to BT-549 breast.
Experiment [2] has as its system HCC-2998 colon.
Experiment [3] relates to MCF7 breast.
Experiment [4] deals with NCI-H522 lung.
The subject of experiment [5] is OVCAR-5 ovarian.
Experiment [6] concerns RXF 393 renal.
The test system of experiment [7] is SK-OV-3 ovarian.
The test system of experiment [8] is SNB-75 CNS.
In experiment [9] the test system is TK-10 renal.
Experiment [10] has as its system OVCAR-4 ovarian.

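Growth conditions: 96-well plates. Treatment: test compound, 48 hours, 5 concentrations. Analysis: linear interpolation between bracketing concentrations; unreached endpoints set to highest concentration. GI50 marks 50% less growth. TGI: concentration producing complete growth inhibition.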

As to `CN(C)C1CN(C(=O)c2cc(-c3ccc4ncnc(N5CCc6cc(F)c(Cl)cc65)c4c3)cnc2N)C1`, the GI50 in [1] was 0.436 µM; in [2], 0.71 µM; in experiment [3], 0.303 µM; in experiment [4], 1.77 µM; in experiment [5], 0.743 µM; in experiment [6], 0.369 µM. The GI50 in experiment [7] is 1.17 µM; in experiment [8] it was 0.195 µM; in experiment [9], 0.786 µM. The TGI in experiment [1] was 4.02 µM; in experiment [2] it was > 100 µM; in experiment [3], > 100 µM; in experiment [4], > 100 µM; in experiment [5], > 100 µM; in [6], 2.34 µM. The TGI in experiment [7] is > 100 µM; in experiment [8], 2.02 µM; in [9], 4.95 µM.

Regarding `NC(=O)c1csc(-c2ccc(CO)o2)n1`, the TGI in experiment [1], in experiment [3], in [4], in experiment [10], in [5] and in experiment [6] was > 100 µM throughout. In addition, the TGI in experiment [7] and in experiment [9] was > 100 µM in each case.

As to `C[C@]12CC[C@@H]3c4ccc(OC(=O)N(CCCl)CCCl)cc4CC[C@H]3[C@@H]1CC[C@@H]2OP(=O)(O)O`, the GI50 was 27.1 µM in experiment [1]; > 74.4 µM in experiment [2]; > 100 µM in experiment [3]; 28.8 µM in experiment [4]; > 58.1 µM in experiment [10]; > 62.7 µM in [5]. The GI50 in experiment [7] was 32.7 µM; in experiment [8], 29.2 µM; in experiment [9], > 38.3 µM. Further, the TGI is 79.1 µM in experiment [1]; > 100 µM in [2]; > 100 µM in experiment [3]; > 71.5 µM in experiment [4]; > 100 µM in [10]; > 100 µM in experiment [5]. In addition, the TGI in experiment [7] is > 89.2 µM; in experiment [8], > 66.7 µM; in [9] it was > 100 µM.

In the case of `C=C(Br)COc1ccc2c(C)cc(=O)oc2c1`, the TGI in [1] is > 100 µM; in experiment [2] it was > 100 µM; in experiment [3], 19.7 µM; in experiment [4], > 100 µM; in experiment [10], > 100 µM; in [5] it was > 100 µM. Moreover, the TGI in [6] was 81 µM; in experiment [9], > 100 µM.

On to `COc1cc(C2CC(c3cccc(Nc4ccnc5cc(Cl)ccc45)c3)=NN2c2ccccc2)cc(OC)c1OC` (stereo not drawn), for which the GI50 in experiment [1] is 13.9 µM; in experiment [2] it was 5.32 µM; in experiment [3], 2.74 µM; in experiment [4] it was 3.6 µM; in [5], > 100 µM; in experiment [6], 8.37 µM. The GI50 in experiment [7] was > 100 µM; in experiment [8], 6.6 µM; in [9], 9.57 µM. Moreover, the TGI was > 100 µM in experiment [1]; 33.8 µM in [2]; > 100 µM in experiment [3]; > 100 µM in experiment [4]; > 100 µM in experiment [5]; > 100 µM in experiment [6]. Further, the TGI in experiment [7], in experiment [8] and in experiment [9] was > 100 µM in each case.

On to `CCc1ncc(CO)n1Cc1cccc2ccccc12`, for which the TGI in [1], in experiment [3], in [4], in experiment [10], in experiment [5] and in experiment [6] was > 100 µM throughout. For the same compound, the TGI in experiment [7], in [8] and in experiment [9] was > 100 µM in each case.

As to `CC1(C)C(CC(=O)O)CCCC1CC(=O)O` (stereo not drawn), the concentration for total growth inhibition (TGI) in experiment [1], in experiment [3], in [10], in experiment [5], in [6] and in experiment [7] was > 100 µM in each case. Moreover, the TGI in experiment [9] is > 100 µM.

Take `CC(C)C1=CC2=C(C(=O)C1=O)C13CCCC(C)(C)C1CC2OC3=O` (stereo not drawn): the TGI is 37.4 µM in experiment [1]; 46.3 µM in experiment [2]; 55.5 µM in [3]; 30.6 µM in experiment [4]; 40.6 µM in [10]; 59.7 µM in experiment [5]. Further, the TGI was > 100 µM in experiment [7], 63.8 µM in experiment [8] and 28.6 µM in experiment [9].

`COC(=O)c1c2c(c(C)[n+]([O-])c1C)C(=O)C(NCc1ccc(O)cc1)=CC2=O`: the GI50 is 1.43 µM in experiment [1]; 1.46 µM in experiment [2]; 0.416 µM in experiment [3]; 1.43 µM in [4]; 1.03 µM in [10]; 1.77 µM in experiment [5]. Moreover, the GI50 in experiment [6] is 1.5 µM; in experiment [8], 1.67 µM. The TGI was 2.91 µM in experiment [1]; 3.23 µM in [2]; 2 µM in experiment [3]; 3.49 µM in experiment [4]; 2.23 µM in experiment [10]; 3.36 µM in experiment [5]. For the same compound, the TGI came out at 2.98 µM in experiment [6] and 3.06 µM in experiment [8].

For `Nc1cc(N)c2nc(NCCc3ccc(Cl)c(Cl)c3)cnc2c1`, the GI50 in [1] is 20.1 µM; in [3] it was 3.08 µM; in experiment [4], 12.6 µM; in experiment [10], 1.81 µM; in experiment [5], 20 µM; in experiment [6] it was 13.8 µM. The GI50 is 17.1 µM in experiment [7], 14.2 µM in experiment [8] and 18.5 µM in experiment [9]. The TGI in experiment [1] came to 34.8 µM; in experiment [3], 13.3 µM; in experiment [4] it was 33.7 µM; in experiment [10], 3.26 µM; in [5] it was 34.6 µM; in experiment [6] it was 30.2 µM. Also, the TGI in experiment [7] came to 32 µM; in [8], 27.2 µM; in [9], 33.3 µM.

Take `COC1C(=O)CCC2(CO2)C1(O)C1(C)OC1CC=C(C)C` (stereo not drawn): the total growth inhibition concentration (TGI) is > 100 µM in experiment [1]; 46.5 µM in [2]; 53 µM in [3]; > 100 µM in experiment [10]; > 100 µM in [5]; > 100 µM in [6]. Further, the TGI in experiment [7], in experiment [8] and in experiment [9] was > 100 µM throughout.

(Values after PubChem BioAssay (NCI).)
